Patent US20250312497A1, “METHOD OF TREATING PROSTATE CANCER” (Novartis AG, priority 2022, published 2025)

System: PSMA-positive mCRPC participants
Test: PSMAfore phase III: adverse events, serious adverse events, safety topics and deaths (safety set)
Format: in vivo, human
[1] = DCO 2 Oct 2022, safety set, preferred term
[2] = DCO 2 Oct 2022, safety set, system organ class
[3] = DCO 21 Jun 2023, ARDT prior to crossover
[4] = DCO 21 Jun 2023, most common AEs by PT (>10% in either arm)
[5] = DCO 21 Jun 2023, safety set, All Grades
[6] = DCO 21 Jun 2023, safety set, Grade >=3
[7] = Safety set, [[…]Lu]Lu-PSMA-617 N = 227, ARDT N = 232
[8] = Safety set, [[…]Lu]Lu-PSMA-617 N = 227, ARDT N = 232 (prior to crossover), CTCAE V5.0

**Q.** Which “On-treatment deaths: Coma” value [1] does the source give for `O=C([O-])CN1CCN(CC(=O)[O-])CCN(CC(=O)NCC2CCC(C(=O)N[C@@H](Cc3ccc4ccccc4c3)C(=O)NCCCC[C@H](NC(=O)N[C@@H](CCC(=O)O)C(=O)O)C(=O)O)CC2)CCN(CC(=O)[O-])CC1.[177Lu+3]` (stereo partly shown) [[177Lu]Lu-PSMA-617, lutetium (177Lu) vipivotide tetraxetan] here?
**A.** Its value is 0 n (%).

**Q.** What about the “On-treatment deaths: Dyspnoea” value [1] of the same compound?
**A.** The value was 0 n (%).

**Q.** And the “On-treatment deaths: Intestinal ischaemia” value [1]?
**A.** The value was 1 (0.4) n (%).

**Q.** And the “On-treatment deaths: Sepsis” value [1]?
**A.** The value was 1 (0.4) n (%).

**Q.** What about the “On-treatment deaths: Cardiac disorders” value [2] of the same compound?
**A.** The value was 1 (0.4) n (%).

**Q.** What about the “On-treatment deaths: Gastrointestinal disorders” value [2] of the same compound?
**A.** Its value is 1 (0.4) n (%).

**Q.** And the “On-treatment deaths: Infections and infestations” value [2]?
**A.** The value was 2 (0.9) n (%).

**Q.** And the “On-treatment deaths: Nervous system disorders” value [2]?
**A.** The value was 0 n (%).

**Q.** What about the “On-treatment deaths: Respiratory, thoracic and mediastinal disorders” value [2] of the same compound?
**A.** Its value is 0 n (%).

**Q.** What about the “AEs leading to discontinuation, Treatment-related” value [3] of the same compound?
**A.** The value was 3.1%.

**Q.** And the “Grade≥3 AEs, Treatment-related” value [3]?
**A.** Its value is 11.0%.

**Q.** What about the “Serious AEs, Treatment-related” value [3] of the same compound?
**A.** The value was 3.1%.

**Q.** What about the Anaemia [4] of the same compound?
**A.** The Anaemia was 24.2%.

**Q.** And the Arthralgia [4]?
**A.** Its Arthralgia is 18.9%.

**Q.** And the Asthenia [4]?
**A.** The Asthenia was 31.7%.

**Q.** What about the Back pain [4] of the same compound?
**A.** Its Back pain is 12.3%.

**Q.** And the COVID-19 [4]?
**A.** The COVID-19 was 16.3%.

**Q.** And the Constipation [4]?
**A.** Its Constipation is 22.0%.

**Q.** And the Decreased appetite [4]?
**A.** Its Decreased appetite is 21.1%.

**Q.** What about the Diarrhoea [4] of the same compound?
**A.** Its Diarrhoea is 16.3%.

**Q.** What about the Dry mouth [4] of the same compound?
**A.** Its Dry mouth is 57.3%.

**Q.** And the Fatigue [4]?
**A.** The Fatigue was 22.9%.

**Q.** What about the Nausea [4] of the same compound?
**A.** The Nausea was 31.3%.

**Q.** And the Oedema peripheral [4]?
**A.** The Oedema peripheral was 8.4%.

**Q.** What about the Vomiting [4] of the same compound?
**A.** The Vomiting was 11.5%.

**Q.** What about the Weight decreased [4] of the same compound?
**A.** Its Weight decreased is 6.6%.

**Q.** And the “AE preferred term: Anaemia” value [5]?
**A.** The value was 55 (24.2) n (%).

**Q.** What about the “AE preferred term: Arthralgia” value [5] of the same compound?
**A.** Its value is 43 (18.9) n (%).

**Q.** And the “AE preferred term: Asthenia” value [5]?
**A.** Its value is 72 (31.7) n (%).

**Q.** What about the “AE preferred term: Back pain” value [5] of the same compound?
**A.** The value was 28 (12.3) n (%).

**Q.** And the “AE preferred term: COVID-19” value [5]?
**A.** The value was 37 (16.3) n (%).

**Q.** What about the “AE preferred term: Constipation” value [5] of the same compound?
**A.** The value was 50 (22.0) n (%).

**Q.** And the “AE preferred term: Decreased appetite” value [5]?
**A.** Its value is 48 (21.1) n (%).

**Q.** And the “AE preferred term: Diarrhoea” value [5]?
**A.** Its value is 37 (16.3) n (%).

**Q.** And the “AE preferred term: Dry mouth” value [5]?
**A.** Its value is 130 (57.3) n (%).

**Q.** And the “AE preferred term: Fatigue” value [5]?
**A.** Its value is 52 (22.9) n (%).

**Q.** And the “AE preferred term: Nausea” value [5]?
**A.** Its value is 71 (31.3) n (%).

**Q.** And the “AE preferred term: Oedema peripheral” value [5]?
**A.** Its value is 19 (8.4) n (%).

**Q.** And the “AE preferred term: Vomiting” value [5]?
**A.** The value was 26 (11.5) n (%).

**Q.** And the “AE preferred term: Weight decreased” value [5]?
**A.** Its value is 15 (6.6) n (%).

**Q.** And the “Adverse events (participants with at least one event)” value [5]?
**A.** Its value is 223 (98.2) n (%).

**Q.** What about the “Adverse events leading to discontinuation” value [5] of the same compound?
**A.** Its value is 13 (5.7) n (%).

**Q.** What about the “Adverse events leading to discontinuation, Treatment-related” value [5] of the same compound?
**A.** The value was 7 (3.1) n (%).

**Q.** And the “Adverse events leading to dose adjustment” value [5]?
**A.** Its value is 8 (3.5) n (%).

**Q.** What about the “Adverse events leading to dose interruption” value [5] of the same compound?
**A.** The value was 27 (11.9) n (%).

**Q.** What about the “Adverse events requiring additional therapy” value [5] of the same compound?
**A.** The value was 162 (71.4) n (%).

**Q.** And the “Adverse events, Treatment-related” value [5]?
**A.** The value was 196 (86.3) n (%).

**Q.** And the “Fatal serious adverse events” value [5]?
**A.** Its value is 4 (1.8) n (%).

**Q.** And the “Fatal serious adverse events, Treatment-related” value [5]?
**A.** The value was 0 n (%).

**Q.** And the Serious adverse events [5]?
**A.** Its Serious adverse events is 46 (20.3) n (%).

**Q.** What about the “Serious adverse events, Treatment-related” value [5] of the same compound?
**A.** The value was 7 (3.1) n (%).

**Q.** What about the “AE preferred term: Anaemia” value [6] of the same compound?
**A.** Its value is 14 (6.2) n (%).

**Q.** What about the “AE preferred term: Arthralgia” value [6] of the same compound?
**A.** The value was 0 n (%).

**Q.** And the “AE preferred term: Asthenia” value [6]?
**A.** Its value is 1 (0.4) n (%).

**Q.** What about the “AE preferred term: Back pain” value [6] of the same compound?
**A.** The value was 2 (0.9) n (%).

**Q.** What about the “AE preferred term: COVID-19” value [6] of the same compound?
**A.** The value was 1 (0.4) n (%).

**Q.** And the “AE preferred term: Constipation” value [6]?
**A.** Its value is 1 (0.4) n (%).

**Q.** What about the “AE preferred term: Decreased appetite” value [6] of the same compound?
**A.** The value was 0 n (%).

**Q.** What about the “AE preferred term: Diarrhoea” value [6] of the same compound?
**A.** The value was 0 n (%).

**Q.** And the “AE preferred term: Dry mouth” value [6]?
**A.** Its value is 3 (1.3) n (%).

**Q.** And the “AE preferred term: Fatigue” value [6]?
**A.** The value was 0 n (%).

**Q.** And the “AE preferred term: Nausea” value [6]?
**A.** The value was 0 n (%).

**Q.** What about the “AE preferred term: Oedema peripheral” value [6] of the same compound?
**A.** The value was 0 n (%).

**Q.** What about the “AE preferred term: Vomiting” value [6] of the same compound?
**A.** Its value is 0 n (%).

**Q.** What about the “AE preferred term: Weight decreased” value [6] of the same compound?
**A.** Its value is 2 (0.9) n (%).

**Q.** What about the “Adverse events (participants with at least one event)” value [6] of the same compound?
**A.** Its value is 78 (34.4) n (%).

**Q.** What about the “Adverse events leading to discontinuation” value [6] of the same compound?
**A.** Its value is 8 (3.5) n (%).

**Q.** What about the “Adverse events leading to discontinuation, Treatment-related” value [6] of the same compound?
**A.** Its value is 4 (1.8) n (%).

**Q.** And the “Adverse events leading to dose adjustment” value [6]?
**A.** The value was 3 (1.3) n (%).

**Q.** What about the “Adverse events leading to dose interruption” value [6] of the same compound?
**A.** Its value is 13 (5.7) n (%).

**Q.** What about the “Adverse events requiring additional therapy” value [6] of the same compound?
**A.** Its value is 48 (21.1) n (%).

**Q.** What about the “Adverse events, Treatment-related” value [6] of the same compound?
**A.** Its value is 25 (11.0) n (%).

**Q.** What about the “Fatal serious adverse events” value [6] of the same compound?
**A.** Its value is 4 (1.8) n (%).

**Q.** What about the “Fatal serious adverse events, Treatment-related” value [6] of the same compound?
**A.** Its value is 0 n (%).

**Q.** What about the Serious adverse events [6] of the same compound?
**A.** The Serious adverse events was 41 (18.1) n (%).

**Q.** And the “Serious adverse events, Treatment-related” value [6]?
**A.** Its value is 6 (2.6) n (%).

**Q.** What about the “Serious adverse event Acute kidney injury, All Grades” value [7] of the same compound?
**A.** The value was 2 (0.9) n (%).

**Q.** What about the “Serious adverse event Acute kidney injury, Grade >=3” value [7] of the same compound?
**A.** Its value is 2 (0.9) n (%).

**Q.** And the “Serious adverse event Anaemia, All Grades” value [7]?
**A.** The value was 4 (1.8) n (%).

**Q.** And the “Serious adverse event Anaemia, Grade >=3” value [7]?
**A.** The value was 3 (1.3) n (%).

**Q.** And the “Serious adverse event COVID-19, All Grades” value [7]?
**A.** Its value is 1 (0.4) n (%).

**Q.** What about the “Serious adverse event COVID-19, Grade >=3” value [7] of the same compound?
**A.** Its value is 1 (0.4) n (%).

**Q.** And the “Serious adverse event Femur fracture, All Grades” value [7]?
**A.** Its value is 2 (0.9) n (%).

**Q.** What about the “Serious adverse event Femur fracture, Grade >=3” value [7] of the same compound?
**A.** The value was 2 (0.9) n (%).

**Q.** And the “Serious adverse event Haematuria, All Grades” value [7]?
**A.** Its value is 0 n (%).

**Q.** What about the “Serious adverse event Haematuria, Grade >=3” value [7] of the same compound?
**A.** The value was 0 n (%).

**Q.** What about the “Serious adverse event Pain, All Grades” value [7] of the same compound?
**A.** The value was 1 (0.4) n (%).

**Q.** What about the “Serious adverse event Pain, Grade >=3” value [7] of the same compound?
**A.** Its value is 1 (0.4) n (%).

**Q.** And the “Serious adverse event Pneumonia, All Grades” value [7]?
**A.** Its value is 1 (0.4) n (%).

**Q.** And the “Serious adverse event Pneumonia, Grade >=3” value [7]?
**A.** The value was 1 (0.4) n (%).

**Q.** What about the “Serious adverse event Sepsis, All Grades” value [7] of the same compound?
**A.** Its value is 3 (1.3) n (%).

**Q.** And the “Serious adverse event Sepsis, Grade >=3” value [7]?
**A.** The value was 3 (1.3) n (%).

**Q.** And the “Serious adverse event Spinal cord compression, All Grades” value [7]?
**A.** Its value is 2 (0.9) n (%).

**Q.** And the “Serious adverse event Spinal cord compression, Grade >=3” value [7]?
**A.** Its value is 2 (0.9) n (%).

**Q.** What about the “Serious adverse event Urinary retention, All Grades” value [7] of the same compound?
**A.** Its value is 1 (0.4) n (%).

**Q.** What about the “Serious adverse event Urinary retention, Grade >=3” value [7] of the same compound?
**A.** The value was 1 (0.4) n (%).

**Q.** What about the “Serious adverse event Urinary tract infection, All Grades” value [7] of the same compound?
**A.** The value was 4 (1.8) n (%).

**Q.** What about the “Serious adverse event Urinary tract infection, Grade >=3” value [7] of the same compound?
**A.** The value was 3 (1.3) n (%).

**Q.** And the “Serious adverse events: number of participants with at least one event, All Grades” value [8]?
**A.** The value was 46 (20.3) n (%).

**Q.** What about the “Serious adverse events: number of participants with at least one event, Grade >=3” value [8] of the same compound?
**A.** Its value is 41 (18.1) n (%).
